# Key:
# [1] = test system: wild type HBV or resistant variants of HBV (polymerase M204V, M204I, L180M, L180M/M204V, N236T); experiment: Antiviral assays in cells chronically infected with wild type HBV or resistant variants (Example 4); assay type: cell-based; conditions: added to the cells daily for nine consecutive days
# Procedure: Antiviral assays were carried out in cells chronically infected with resistant variants of HBV. In order to gauge the efficacy of Formula (IIa) and the antiviral nucleoside analogs lamivudine (3TC) and adefovir dipivoxil (ADV) against the tested strains, the in vitro activity (EC50, μM) was determined using six different cell samples chronically infected with HBV. Each cell sample was infected with either wild type HBV or a resistant variant of HBV, wherein the resistant variants comprise mutations in the HBV polymerase (P) at the following amino acid positions: M204V, M204I, L180M, L180M/M204V, and N236T. In each assay, Formula (IIa), 3TC, or ADV was added to the cells daily for nine consecutive days.
# [2] = test system: woodchuck hepatitis virus (WHV); experiment: Formula (IIa) in combination with entecavir, sequential oral treatment of chronic WHV carrier woodchucks (Example 3); assay type: in vivo, woodchuck (Marmota monax)
# Text: Ten (10) woodchucks chronically infected with WHV were used. Woodchucks were born in captivity and were inoculated at 3 days of age with cWHV7P2a inoculum, then reared until 11 months of age. Prior to the study, woodchucks were confirmed as established chronic carriers of WHV based on established criteria including the presence of WHV surface antigen (WHsAg), antibody against […], and WHV DNA. Woodchucks used in the study were of both gender and approximately between 12 and 14 months of age at the start of the study.
# Two (2) groups of five (5) chronic WHV carrier woodchucks each were used in the study:
# Group 1 was orally treated for 4 weeks with ETV at a daily dose of 0.5 mg/kg starting at T0, followed by add-on treatment with Formula (IIa) for 12 weeks at a daily dose of 30 mg/kg. Woodchucks were then followed for a total of 24 weeks.
# Group 2 was orally treated for 12 weeks with Formula (IIa) at a daily dose of 30 mg/kg starting at T0, followed by add-on treatment with ETV for 4 weeks at a daily dose of 0.5 mg/kg. Woodchucks were then also followed for a total of 24 weeks.
# Formula (IIa) was supplied as a pre-weighed powder in individual containers. An amount of powder sufficient to treat all 10 pre-weighed woodchucks per day with Formula (IIa) was mixed directly with woodchuck diet powder (Dyets Inc., Bethlehem, Pa.) and then suspended with HPLC water. The drug was orally administered with a dose syringe at T0 (Group 2) or after 4 weeks of treatment with ETV (Group 1), and thereafter every day for 12 weeks (84 days). Drug dosing was then followed by an extra 2 ml of woodchuck liquid diet to ensure complete consumption of Formula (IIa).
# ETV was provided as powder. An amount of powder sufficient to treat all 10 woodchucks per day was suspended in isotonic saline at a concentration of 0.5 mg/ml. A volume (ml) of drug solution equivalent to the body weight (kg) of an individual woodchuck was then mixed with approximately 3-5 ml of woodchuck liquid diet and administered orally with a dose syringe at T0 (Group 1) or after 12 weeks of treatment with Formula (IIa) (Group 2), and thereafter every day for 4 weeks (28 days). ETV dosing was followed by an extra 2 ml of woodchuck liquid diet to ensure complete consumption of drug.
# Prior to administration of Formula (IIa) or ETV at T0, then weekly until the end of the study at week 24, whole blood samples were drawn from each woodchuck under ketamine/xylazine anesthesia for determinations of serum WHV DNA, WHsAg, and anti-WHs (see Summary Table below). […] Blood samples were kept at room temperature following collection and serum harvested upon observation of clot retraction. Harvested serum was transferred to microcentrifuge tubes and stored frozen at −70° C. until use.
# The induction of an innate immune response in peripheral blood and liver of woodchucks by combination treatment with Formula (IIa) and ETV were determined via real time PCR-based assays. Whole blood samples were obtained prior to the start of treatment with Formula (IIa) at T0, and then at weeks 4, 10, 16, 20, and 24 (Group 1) or at weeks 6, 12, 16, 20, and 24 (Group 2) (see Summary Table below). Whole blood was drawn into PAXgene blood tubes at the indicated time points and stored at −70° C. until use. Total RNA was isolated from whole blood and treated with DNase using the PAXgene Blood miRNA Kit (Quiagen). This was followed by reverse transcription of mRNA into cDNA and amplification of host immune response genes by real time PCR. Woodchuck cytokine and interferon-stimulated genes included IFN-α, IFN-β, interleukin 6 (IL-6), 2′-5′-oligoadenylate synthetase 1 (OAS-1), interferon-induced 17 kDa protein (ISG15), and interferon gamma-induced protein 10 (IP-10or CXCL10). Woodchuck 18S rRNA expression was used to normalize target gene expression. […]
# [3] = test system: woodchuck hepatitis virus (WHV); experiment: Antiviral activity of Formula (Ia), intraperitoneal, in chronic WHV carrier woodchucks (Example 1); assay type: in vivo, woodchuck (Marmota monax)
# Procedure: Three groups of five chronic WHV carrier woodchucks were used in this in this study. Formula (Ia) was administered intraperitoneally to two groups for a total of 4 weeks. Groups for drug treatment received Formula (Ia) at either 10 mg/kg/day or 30 mg/kg/day. The third group received physiological saline intraperitoneally and served as placebo-treated controls.
# Blood samples for WHV serology, serum […], and hematological and biochemical profiles were obtained prior to the start of treatment and taken thereafter according to the study design. The body weight of each subject was recorded when the woodchucks were anesthetized and bled. The recorded body weights of the drug-treated woodchucks were compared to the placebo-treated control woodchucks to assess possible drug toxicity. WHsAg and anti-WHs and anti-WHc antibodies were determined qualitatively using established ELISA protocols. Dilutions of serum were used to ensure the detection of these markers […] conditions.
# WHV DNA in serum was initially measured by dot blot hybridization and quantified by comparing signals of test specimens and standards of known WHV DNA concentration using a homologous probe. […] Quantitative WHV nucleic acid analyses were also performed using a real-time PCR assay with samples containing serum WHV DNA below the limit of detection by dot blot analysis. […]
smiles,measurement,setting,value
"CC(C)(C)C(=O)OCOP(=O)(COCCn1cnc2c(N)ncnc21)OCOC(=O)C(C)(C)C [ADV, adefovir dipivoxil, reference compound]","efficacy against cells infected with wild type and resistant HBV strains (in vitro activity, FIG. 31)",[1],efficacious against cells infected with all the HBV strains tested
"C=C1[C@H](CO)[C@@H](O)C[C@@H]1n1cnc2c(=O)[nH]c(N)nc21 [ETV, entecavir, reference compound]",expected suppression of serum viremia,"[2]; ETV 0.5 mg/kg daily oral for 4 weeks, expectation from previous studies",3-4 log10
same,reductions in serum WHV DNA from pretreatment level during the 4 weeks of ETV,"[2]; ETV 0.5 mg/kg daily oral, Group 1",marked reductions
same,reductions in serum WHsAg from pretreatment level during the 4 weeks of ETV administration,"[2]; ETV 0.5 mg/kg, most woodchucks of Group 1",marked reductions
COC1[C@@H](OP(=O)(S)OC[C@H]2O[C@@H](n3cnc4c(N)ncnc43)C[C@H]2O)[C@@H](CO)O[C@H]1n1ccc(=O)[nH]c1=O (stereo partly drawn) [Formula (Ia)],staining intensity of cytoplasmic WHcAg in liver tissues compared to placebo controls,"[3]; 30 mg/kg, end of treatment at week 4",significantly decreased
same,consistent reductions in serum WHsAg and in hepatic expression of WHcAg and WHsAg,"[3]; 10 and 30 mg/kg/day, 4 weeks",not observed on a dose-response basis

# From patent US20180110796A1, “COMPOSITIONS AND METHODS FOR THE TREATMENT OF HBV INFECTION” (Spring Bank Pharmaceuticals, Inc., priority 2015, published 2018)
